Reference: patent US20240299321A1, “METHODS TO SENSITIZE CANCER CELLS AND STANDARDIZED SCREENING ASSAY FOR IMMUNOTHERAPY” (THE TRUSTEES OF INDIANA UNIVERSITY, priority 2020, published 2024)

Legend:
MDA-MB-468 cells = assay: Gene expression in MDA-MB-468 cells (quantitative RT-PCR); format: cell-based, human; conditions: BML-210 1.0 μM, FIG. 4B
EO771 tumors = assay: CyTOF immune profile of EO771 tumors; format: in vivo, C57BL/6 mice
Protocol: Animal studies: All animal experiments were performed in accordance with the National Institutes of Health's Animal Use Guidelines and protocols approved by the Animal Care and Use Committee of Indiana University School of Medicine. […] Each mouse was injected with a total of 2×10^5 tumor cells. 5 mice were used in each group. Tumors were measured in two dimensions using a manual caliper. Tumor volume was calculated using the following formula: V=0.5×length×width×width. Tumor volume was measured every 3 days. Tumors were harvested 22 days after injection. The tumor growth, volume and weight were analyzed. To evaluate the anti-tumor effect of drugs in immunocompetent C57BL/6 mice and immunodeficient nude (NU/J) mice, 2×10^5 EO771 cells were orthotopically injected into fat pad of the 4th mammary gland in female mice. […] For CD4/CD8 depletion experiment, the tumor-bearing mice were randomly divided into 7 groups (n=8 mice/group) including isotype control (rat IgG2a, Bioxcell), isotype control+CUDC-101, isotype control+BML-210, anti-CD8 (Clone: 53-6.72, Bioxcell)+CUDC-101, anti-CD8+BML-210, anti-CD4 (Clone: GK1.5, Bioxcell)+CUDC-101, or anti-CD4+BML-210. Intraperitoneal injection of inhibitors (20 mg kg-1) and anti-CD4/CD8 (10 mg kg-1) were administrated to the mice by 3 times/week for 2 weeks. The tumors were harvested at day 18 (NU/J mice) or day 28 (C57BL/6 mice) for further analyses. In immune checkpoint blockade experiment, 2×10^5 EO771 cells were orthotopically injected into fat pad of the 4th mammary gland in female C57BL/6 mice. From day 10, the tumor-bearing mice were randomly divided into each treatment group (n=8 mice/group), and the mice were treated with IgG2a isotype control antibody (clone 2A3, Bioxcell), BML-210 (20 mg kg-1), anti-PD-1 (200 μg/mouse, Bioxcell), or BML-210 and anti-PD-1 combo. The treatment was done 3 times/week for 2 weeks. Tumors were harvested at day 26 post injection and the tumors were analyzed by IHC staining, flow cytometry, ELISA or CyTOF assay. Mass Cytometry (CyTOF): EO771 tumors in C57BL/6 mice were harvested and dissociated into single cells. 1×10^6 single cells from each sample were suspended in ice-cold buffer (PBS with 0.5% BSA and 0.02% Azide). The antibody panel (Table 1) was used for sample staining. Samples were analyzed using the CyTOF 2 Mass Cytometer (Fluidigm). All the samples were done on bead-based normalization before analysis on Cytobank. CyTOF data were analyzed using viSNE analysis64 in the Cytobank platform. The viSNE analysis uses the Barnes-Hut implementation of the t-Distributed Stochastic Neighbor embedding (tSNE) algorithm. The cell populations were visualized on viSNE as an overlay plot.

EO771 cells = assay: Gene expression in EO771 cells (RNA-seq, quantitative RT-PCR); format: cell-based, mouse
Protocol: Quantitative reverse transcription PCR (RT-PCR): Mouse EO771 cells were treated with and without BML-210 drug for 48 h. Total RNA was isolated from the cells using TRIzol (Ambion, Lot: 260808) and the miRNeasy Mini kit (Qiagen, 157029493, Thermo Scientific). The quality of the RNA was quantified by a Nano Drop 2000 spectrophotometer. A total of 1 μg RNA was reverse transcribed into cDNA using the […] superMix reagent (Quantabio, 66141329). Quantitative PCR was performed using SYBR Green […] low Rox reagent (TaKaRa) on a Quantstudio real-time PCR system (ThermoFisher Scientific). RNA sequencing: Total RNA was extracted from EO771 cells using TRIzol (Ambion) and the miRNeasy Mini kit (Qiagen). The quantity and quality of the RNA was evaluated by an Agilent Bioanalyzer 2100. 100 ng of total RNA from each sample was used, from which ribosomal RNA was removed by the QIAseq FastSelect rRNA Removal HMR Kit (Qiagen). The cDNA library was constructed using the KAPA RNA Hyper Prep Kit (Roche Corporate) and the quality was accessed by the Qubit and Agilent Bioanalyzer. The library pool was sequenced in 100b paired-end read format on NovaSeq 6000 (Illumina) at the Center for Medical Genomics, Indiana University School of Medicine (IUSM). RNA-seq analysis: The reads were mapped to the mouse genome mm10 using STAR (v2.5)65. RNA-seq aligner with the following parameter: “--outSAMmapqUnique 60”. Uniquely mapped sequencing reads were assigned to GENCODE M22 genes using feature Counts (v1.6.2)66 with the following parameters: “-s 2 -p -Q 10”. […] The data were visualized with volcano plot using MATLAB. The gene enrichment analysis on DEGs from the Kyoto Encyclopedia of Genes and Genomes (KEGG) pathway database and Gene Ontology database was performed using the Database for Annotation, Visualization and Integrated Discovery (DAVID) functional analysis69. The analysis was visualized using MATLAB with q value (-log 10) and gene number in each GO and pathway. Gene set enrichment analysis (GSEA) of the antigen processing and presentation pathway was carried out with GSEA software70.

mouse melanoma model = conditions: reported; cited from earlier work

SMILES	expression of antigen processing and presentation DEGs (qPCR) (MDA-MB-468 cells)	infiltration of PMN-MDSCs (EO771 tumors; CD11b+Ly6G+Ly6ClowF4/80−)	Mo-MDSCs (EO771 tumors; CD11b+Ly6G-Ly6C+F4/80−)	tumor-associated macrophage (TAM M1 and TAM M2) populations (EO771 tumors; mouse, in vivo)	infiltration of immune lymphocytes, particularly CD8+ T effector cells and NK cells (EO771 tumors; tumors 26 days post implantation)	expression of antigen processing and presentation DEGs (qPCR) (EO771 cells; EO771, BML-210 1.0 μM, FIG. 4A)	MHC-I genes (H2-D1, H2-K2, B2M), lysosome gene (Lamp1), endosome gene (Hspa8) (EO771 cells; RNA-seq)	genome-wide gene expression profile (GO enrichment) (EO771 cells; RNA-seq)	CD8+ T cell infiltration and anti-tumor response (mouse melanoma model)
Nc1ccccc1NC(=O)CCCCCCC(=O)Nc1ccccc1 [BML-210]	most of DEGs had higher expression levels	decreased infiltration	increased	No significant differences	notably enhanced infiltration	most of DEGs had higher expression levels	induced	upregulation of genes particularly enriched in lysosome, phagosome, antigen processing and presentation pathways	–
c1ccc([C@@H]2C[C@H]2NC2CCNCC2)cc1 [GSK-LSD1]	–	–	–	–	–	–	–	–	promote CD8+ T cell infiltration and anti-tumor response
